1 substance from patent publication US20260083859A1, “SUSTAINED TRANSGENE EXPRESSION OF MODIFIED ERT2 PEPTIDE-SUICIDE PROTEIN FUSION POLYPEPTIDES” (Senti Biosciences, Inc., priority 2023, published 2026) can be followed below.

Data set [1] deals with human iPSCs. As to the kind of experiment: Conventional PCR (agarose gel) of knock-in iPSC pools, with or without 4-OHT. It counts as cell-based. The note with it: iPSC pools treated with 1 nM 4-OHT. Here is the method: Modified ERT2 peptide-suicide protein fusion polypeptide encoding constructs were delivered to human iPSCs via Nucleofection with a GAPDH targeting ribonucleoprotein (RNP) complex comprising of Cpf1 endonuclease and a single guide RNA (sgRNA) targeting the coding sequence of the GAPDH gene. The sgRNA comprised a sequence 5′ […] 3′ (SEQ ID NO: 60). Briefly, iPSCs were cultured in Essential 8 (E8) medium and maintained at 37° C. at 5% CO2 level between passages. Passages were done at 75 to 80% confluency. On the day of Nucleofection, iPSCs were thawed and immediately Nucleofected in Lonza P3 Primary Cell Nucleofection buffer. 7.5 μg of each plasmid construct (BRC00058-61) were Nucleofected into iPSCs using GAPDH Cpf1 RNP with LONZA 4D Nucleofector. The Nucleofected cells were then plated at 50,000 cells/cm^2 per well of a 6-well plate and grown in E8 medium (plus Rock inhibitor Y-27632 from Tocris) for 72 to 96 hours. Knock-in pools were screened for integration 7d post-Nucleofection using ddPCR, as well as conventional PCR.

The test system of data set [2] is iPSCs. Put plainly: Apoptosis induction in transfected iPSCs monitored by microscopy and Incucyte tracking. It counts as cell-based, human. To be noted: unedited control cells, 1 nM 4-OHT, up to two days.
Data set [3] has as its system iPSC clones. As to the kind of experiment: Apoptotic efficacy in individual construct clones treated with 4-OHT, Endoxifen or combinations. It counts as cell-based, human. To be noted: clone Construct 1 c.165. On the procedure:
Next, individual clones that were determined to be suitable for further assessments were evaluated for 24 hours in the presence of 4-OHT at two different concentrations.
Individual Construct 1-4 clones were also assessed for their responses to another tamoxifen metabolite, Endoxifen. Clones were evaluated for 24 hours in the presence of Endoxifen at three different concentrations.
Tamoxifen is a prodrug that is broken down into its active metabolites in vivo. To model predicted drug concentrations in a patient, the clone Construct 1 c.165 was treated with various combinations of 4-OHT and Endoxifen, wherein 1.25 nM Endoxifen was combined with a concentration of 4-OHT ranging between 0.125 nM to 1 nM (FIG. 12A). […] In the next evaluation, 0.125 nM 4-OHT was combined with either 0.625 or 1.25 nM Endoxifen (FIG. 12B).

The test system of data set [4] is PSC-derived microglial precursor cells or myeloid progenitor cells. Put plainly: Apoptosis in PSC-derived microglial precursor cells or myeloid progenitor cells (Example 8). The data set is classed as cell-based. The note with it: cells from PSCs engineered with Table 3 constructs; 1, 5, 50 or 100 nM 4-OHT, or 5, 10, 50 or 100 nM Endoxifen. Here is the method:
To validate conservation of kill switch function after PSCs are differentiated to precursor cells or myeloid progenitor cells, PSCs engineered to incorporate the modified ERT2 peptide-suicide protein fusion polypeptide constructs outlined in Table 3 were differentiated into microglial precursor cells or myeloid progenitor cells. Thereafter PSC-derived microglial precursor cells or myeloid progenitor cells are treated with Endoxifen, 4-OHT or media alone and tested for incorporation of the modified ERT2 peptide-suicide protein fusion polypeptide in the STEL site.
To test function of the modified ERT2 peptide-suicide protein fusion polypeptide constructs in PSC-derived microglial precursor cells or myeloid progenitor cells, cells are cultured, then treated with either lnM, 5 nM, 50 nM, or 100 nM 4-OHT, or 5 nM, 10 nM, 50 nM, or 100 nM Endoxifen, before assessment of apoptosis.

For data set [5], the system named is PSC-derived dopaminergic neurons. Put plainly: Apoptosis in PSC-derived dopaminergic neurons (Example 9). The note with it: neurons from PSCs engineered with Table 3 constructs; 1, 5, 50 or 100 nM 4-OHT, or 5, 10, 50 or 100 nM Endoxifen. The data set is classed as cell-based. Here is the method:
To validate conservation of kill switch function after PSCs are differentiated to dopaminergic neurons, PSCs engineered to incorporate the modified ERT2 peptide-suicide protein fusion constructs outlined in Table 3 are differentiated into dopaminergic neurons. Thereafter PSC-derived dopaminergic neurons are treated with Endoxifen, 4-OHT or media alone and tested for incorporation of the modified ERT2 peptide-suicide protein fusion polypeptide construct in the STEL site.
To test function of the modified ERT2 peptide-suicide protein fusion polypeptides in PSC-derived dopaminergic neurons, dopaminergic neurons are cultured, then treated with either lnM, 5 nM, 50 nM, or 100 nM 4-OHT; or 5 nM, 10 nM, 50 nM, or 100 nM Endoxifen, before assessment of apoptosis.

For data set [6], the system named is PSC-derived myeloid progenitor cells. Put plainly: TamCasp9 Safety Switch activation in PSC-derived myeloid progenitor cells, AOPI staining, Incucyte SX5. The data set is classed as cell-based, human. The note with it: unedited differentiated myeloid progenitors, combination 4-OHT and Endoxifen treatment. On the procedure:
A hPSC line engineered with TamCasp9 Construct 1 and an unedited parental control hPSC line were differentiated into myeloid progenitor cells through the addition of various growth factors and small molecules. Differentiated cells were plated at 1×10^5 cells/cm^2 in an ultra-low attachment cell culture plate for further myeloid cell maturation. After 7 days in maturation medium, cells were collected and frozen down.
For testing of TamCasp9 Safety Switch activation, myeloid cells were plated at 1.5×10^5 cells/cm^2 in a 96-well tissue culture plate with a 1:750 dilution of ViaStain AOPI Staining Solution (Nexcelom) in X-VIVO 15 Medium with 10 ng/mL GM-CSF. The kill switch was induced with 0, 1, 10 or 100 uM of Endoxifen over 3 days and images were collected every 6 hours on the Incucyte SX5 (Sartorius).
To better model predicted drug concentrations in a patient by testing activation of the kill switch against a range of tamoxifen metabolites, the PSC clone Construct 1 c.165, engineered to incorporate an exemplary modified ERT2 peptide-suicide protein fusion polypeptide construct (Table 3), was differentiated to myeloid progenitor cells as depicted in FIG. 13A. Differentiated cells were plated at 1×10^5 cells/cm^2 in an ultra-low attachment cell culture plate for further myeloid cell maturation. After 7 days in maturation medium, cells were collected and frozen down. For testing of TamCasp9 Safety Switch activation, myeloid cells were plated at 1.0×10^5 cells/cm^2 in a 96-well tissue culture plate with a 1:750 dilution of ViaStain AOPI Staining Solution (Nexcelom) in X-VIVO 15 Medium with 10 ng/mL GM-CSF. The kill switch was induced with varying concentrations of combination 4-OHT and Endoxifen treatment over 4 days and images were collected every 4 hours on the Incucyte SX5, with 12 hour timepoints plotted on a graph (Sartorius) (FIG. 14). Either 2.5 nM or 5 nM of Endoxifen was tested in combination with either 0.5 nM, 1 nM or 10 nM of 4-OHT. 100 nM Endoxifen was added as positive killing control as per FIG. 13E.

For 4-hydroxytamoxifen [Construct 4-OHT], the “amount of cells carrying integration of kill-switch fusion sequences (PCR band intensity)” value in data set [1] was “reduced the amount of cells that carried integration of the kill-switch fusion sequences at the GAPDH locus”. In addition, in data set [2], the “cell growth and density” value is “no detectable effect on cell health and growth”. For the same substance, the “lowest effective concentration in 4-OHT-Endoxifen combination” value in data set [3] was determined as 0.125 nM. Further, the apoptosis result in data set [4] and in data set [5] was “resulted in apoptosis” throughout. The “apoptosis in unedited cells” value in data set [6] is reported as “did not induce apoptosis”.
